Kd data for 107 compounds are collected here from PubChem BioAssay AID1552 (Sanford-Burnham Center for Chemical Genomics, 2009).

By Kd is commonly meant the constant that tells how readily two partners part at equilibrium.

Active and inactive are the calls of the source. No rule for the calls is given here.

The target of this assay is Ubiquitin-conjugating enzyme E2 N (Homo sapiens) (UniProt P61088). In words: NMR detection of UBE2N ligand binding – biophysical, purified protein (AID 1552). Conditions: NMR binding to purified UBE2N.
Chain of Ubiquitin-conjugating enzyme E2 N (Homo sapiens) (P61088 whole entry, looked up): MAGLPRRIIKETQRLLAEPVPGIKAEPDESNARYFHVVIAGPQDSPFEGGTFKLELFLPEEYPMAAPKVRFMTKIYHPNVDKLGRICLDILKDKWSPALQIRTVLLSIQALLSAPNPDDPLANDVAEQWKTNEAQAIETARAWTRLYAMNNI
`CC(=O)c1nnc2cc(C)nn2c1C`: the Kd was > 4 mM (inactive).
Regarding `O=C(Nc1cnccn1)c1cccc(C(F)(F)F)c1`, the Kd was > 4 mM (inactive).
With `CC1=C(C(N)=O)C(c2ccco2)C(C(N)=O)=C(C)N1` the figure was > 4 mM (inactive); with `COC(=O)C1Cc2ccccc2N1` (configuration not stated), > 4 mM (inactive); with `Cc1cc(NC(=O)NCCCSc2nncn2C)no1`, > 4 mM (inactive).
The result for `O=C(O)c1ccc2ncccc2c1` reads > 4 mM (inactive); that for `Nc1ccc2[nH]ccc2c1`, > 4 mM (inactive).
The result for `O=C1Nc2ccc(S(=O)(=O)NCCO)c3cccc1c23` reads > 4 mM (inactive).
In the case of `COc1cc(OC)c2c(c1Cl)OC1(C2=O)C(O)=CC(=O)CC1C` (configuration not stated), the Kd was > 4 mM (inactive).
With `O=C(O)C1(S(=O)(=O)c2ccccc2)CC1`, the Kd was > 4 mM (inactive).
With `C=CC(C1=CC(=O)C=CC1=O)c1ccccc1` (configuration not stated) the figure was > 4 mM (inactive); with `COc1cc(C(C)=O)ccc1OCC(O)Cn1ccnc1` (configuration not stated), > 4 mM (inactive).
With `CC(C)CNc1cc(=O)n(C)c(=O)n1C` the figure was > 4 mM (inactive); with `O=C(O)C1CCN(C(=O)c2cccs2)CC1`, > 4 mM (inactive).
With `CN1CCN(C(=O)/C=C\C(=O)O)CC1` the figure was > 4 mM (inactive).
Consider `Cn1ncc(CO)c1-c1ccccc1`, for which the Kd was > 4 mM (inactive).
The result for `CC(=O)NC12CC3CC(CC(O)(C3)C1)C2` reads > 4 mM (inactive); that for `CC(=O)C1CCC2C3CCC4C[C@H](O)CCC4(C)C3C[C@H](O)C12C` (some centres not stated), > 4 mM (inactive).
On to `CC(=O)Nc1nc2c(s1)C(=O)NCCC2`, for which the Kd is > 4 mM (inactive).
The result for `Nc1ccc(F)cc1F` reads > 4 mM (inactive); that for `Cc1c(N=Cc2ccc[nH]2)c(=O)n(-c2ccccc2)n1C`, > 4 mM (inactive); that for `CC[C@H](/C=C/C(C)C1CCC2C3CCC4=CC(=O)CC[C@]4(C)C3CC[C@]12C)C(C)C` (some centres not stated), > 4 mM (inactive).
As for `Nc1ccc(CN2CCS(=O)(=O)CC2)cc1`, the Kd is > 4 mM (inactive).
With `O=C(Oc1ccc2c(c1)OCC2=O)c1ccccc1` the figure was > 4 mM (inactive).
The result for `CCN1C(=O)c2cccc3c(S(N)(=O)=O)ccc1c23` reads > 4 mM (inactive); that for `CC(=O)NC(C)C12CC3CC(CC(C(=O)O)(C3)C1)C2` (configuration not stated), > 4 mM (inactive).
The result for `COc1nc(C)ccc1-c1noc(-c2ccncc2)n1` reads > 4 mM (inactive); that for `Cc1cc(C)n2nc(-c3cccnc3)nc2n1`, > 4 mM (inactive); that for `CC(=O)Nc1cc(S(=O)(=O)N(C)C)ccc1Cl`, > 4 mM (inactive).
Turning to `Cc1csc2nc3ccccc3c(=O)n12`, the Kd was > 4 mM (inactive).
As for `C=CCCCCCCCCCCCC(O)CC(O)COC(C)=O` (configuration not stated), the Kd was > 4 mM (inactive).
The result for `c1cc(C(N2CCOCC2)N2CCOCC2)ccn1` reads > 4 mM (inactive).
Consider `O=C(O)CS(=O)(=O)c1ccccc1`, for which the Kd is > 4 mM (inactive).
With `CN1CCCC1C(=O)O` (configuration not stated) the figure was > 4 mM (inactive).
With `CCC(CCC(C)[C@H]1CCC2C3CC=C4C[C@@H](O)CC[C@]4(C)C3CC[C@@]21C)C(C)C` (some centres not stated) the figure was > 4 mM (inactive).
The result for `CC(=O)OC1CC[C@@]2(C)C(CCC3C2CC[C@]2(C)C(C4=CC(=O)OC4)C(OC(C)=O)CC32O)C1` (some centres not stated) reads > 4 mM (inactive); that for `Oc1ccccc1N=Cc1cccnc1`, > 4 mM (inactive).
Regarding `CCC1=Nc2ccccc2-c2nnc(SC)nc2O1`, the Kd was > 4 mM (inactive).
The result for `O=C(CC1Nc2ccccc2NC1=O)Nc1ccc(O)cc1` (configuration not stated) reads > 4 mM (inactive); that for `Nc1c2c3c(sc2nc(=O)n1N)CCCC3`, > 4 mM (inactive); that for `OCc1ccc(CN2CCOCC2)cc1`, > 4 mM (inactive).
With `CC(=O)O[C@@H]1C[C@@]2(C)[C@H](c3ccoc3)C[C@H]3O[C@]32[C@]2(C)C(=O)C(O)=C3C(C)(C)C(=O)C=C[C@]3(C)C12` (some centres not stated) the figure was > 4 mM (inactive).
The result for `Nc1ncnc2nc(SCCN3CCCCC3)[nH]c12` reads > 4 mM (inactive); that for `CNC(=O)C(=O)NCc1ccc(C)cc1`, > 4 mM (inactive); that for `Cc1nn2c3ccccc3nc2n(Cc2ccccc2)c1=O`, > 4 mM (inactive).
On to `Cc1ccccc1NC(=O)C1CC(=O)N=C(N)S1` (configuration not stated), for which the Kd was > 4 mM (inactive).
The result for `CC1(C)SCC(C(=O)O)N1C=O` (configuration not stated) reads > 4 mM (inactive).
On to `COc1cccc(/C=C/C(=O)O)c1C(C)C`, for which the Kd is > 4 mM (inactive).
The result for `CC1=CC(=O)NC2C=CC=CC12` (configuration not stated) reads > 4 mM (inactive); that for `COc1cc(/C=C/C(=O)O)cc(OC)c1OC`, > 4 mM (inactive); that for `Cc1ccc(-n2[nH]c(C)cc2=O)cc1`, > 4 mM (inactive).
With `O=C1C(=O)N(CN2CCN(CCO)CC2)c2ccccc21` the figure was > 4 mM (inactive); with `COc1ccccc1NC(=O)c1ccc(Br)o1`, > 4 mM (inactive); with `O=C(c1ccncc1)N1CCN(C(=O)c2ccncc2)CC1`, > 4 mM (inactive).
With `O=C(O)c1ccc2nccnc2c1` the figure was > 4 mM (inactive); with `O=c1ccc2c([nH]1)CCCC2`, > 4 mM (inactive).
`CC1=NN(c2ccc(N)cc2)C(=O)C1`: the Kd was > 4 mM (inactive).
With `O=C1NC(=O)C(C(=S)Nc2ccccc2)C(=O)N1` the figure was > 4 mM (inactive); with `Cc1noc(C)c1C(=O)Nc1cccnc1`, > 4 mM (inactive).
The result for `CC(=O)O[C@H]1C[C@@H](OC(C)=O)C(C)(C)C2C[C@@H](OC(C)=O)[C@]3(C)C([C@H](OC(C)=O)C[C@@]4(C)[C@H](c5ccoc5)OC(=O)[C@H]5O[C@]543)[C@]21C` (some centres not stated) reads > 4 mM (inactive).
With `Cc1cc(C)n(CCCC(=O)O)n1` the figure was > 4 mM (inactive); with `Nc1cccc(-n2cccc2)c1`, > 4 mM (inactive).
For the compound `Cc1cc(N)n(C2CCOC(C)(C)C2)n1` (configuration not stated), the Kd was > 4 mM (inactive).
With `O=C(NCc1ccccc1Br)c1ccco1`, the Kd is > 4 mM (inactive).
With `Cc1nnsc1C(=O)Nc1ccccc1[N+](=O)[O-]` the figure was > 4 mM (inactive); with `Cn1cccc1C(=S)N1CCOCC1`, > 4 mM (inactive).
With `CCC(=O)NC(=S)Nc1ccc(O)cc1` the figure was > 4 mM (inactive); with `O=C(CNC(=O)c1ccc(F)cc1)NC1=NCCS1`, > 4 mM (inactive).
With `Cc1cc(C)nc(NC(N)=NCc2ccco2)n1` the figure was > 4 mM (inactive).
`S=C(c1cccnc1)N1CCOCC1`: the Kd is > 4 mM (inactive).
The result for `COc1cccc(NC(=O)c2nc3ncccn3n2)c1` reads > 4 mM (inactive); that for `Cc1nc2cc(Cl)ccc2n1CCO`, > 4 mM (inactive); that for `O=C(Nc1ccc(Cl)cc1)N1CCCC1`, > 4 mM (inactive).
With `Cn1c(=O)n(C)c2cc(C(N)=O)ccc21`, the Kd is > 4 mM (inactive).
With `CC(O)(C(=O)O)c1ccccc1` (configuration not stated) the figure was > 4 mM (inactive); with `OC(CCl)c1ccc(-n2cncn2)cc1` (configuration not stated), > 4 mM (inactive).
As to `Oc1ccccc1N1CCOCC1`, the Kd is > 4 mM (inactive).
The result for `NC(=O)c1ccc(N2CCCCC2)c(N)c1` reads > 4 mM (inactive).
With `S=c1nc(Cc2ccccc2)[nH][nH]1` the figure was > 4 mM (inactive); with `O=C(O)C1CSC(c2ccccc2)N1` (configuration not stated), > 4 mM (inactive).
The result for `COc1ccc2c(=O)c(CC(=O)O)coc2c1` reads > 4 mM (inactive); that for `Cc1ccc(CNc2ccc(O)cc2)cc1`, > 4 mM (inactive).
`O=C(NC1CCS(=O)(=O)C1)c1cccs1` (configuration not stated): the Kd is > 4 mM (inactive).
The result for `O=c1[nH]oc2ccccc12` reads > 4 mM (inactive); that for `Cc1nc(N)sc1C(=O)N/N=C/c1ccncc1`, > 4 mM (inactive).
Consider `O=C1CSC(=Nc2ccc(O)cc2)N1`, for which the Kd is > 4 mM (inactive).
With `CN1C(=O)/C(=C/c2ccccc2O)NC1=S` the figure was > 4 mM (inactive).
The result for `O=C(c1ccncc1)c1ccc(Br)cc1` reads > 4 mM (inactive); that for `Cn1nnc2cc(C(=O)O)ccc21`, > 4 mM (inactive); that for `Nc1cc(C(=O)O)ccc1N1CCCCCC1`, > 4 mM (inactive).
With `N#Cc1cccc(Cn2nnc(-c3ccccc3)n2)c1` the figure was > 4 mM (inactive).
For the compound `NC1CSCC1O` (configuration not stated), the Kd is > 4 mM (inactive).
The result for `Cc1c(C(=O)Nc2cnccn2)oc2ccccc12` reads > 4 mM (inactive); that for `Cc1noc(C)c1C(=O)N1CCc2ccccc2C1`, > 4 mM (inactive).
The result for `CC(NC(=O)c1ccco1)C1CCCO1` (configuration not stated) reads > 4 mM (inactive); that for `Cc1cccc(NC(=O)Nc2cc(C)on2)c1`, > 4 mM (inactive); that for `CC(C)Nc1nc2n(c(=O)n1)CCN2C(C)C`, > 4 mM (inactive).
For the compound `CC(=O)Nc1cccs1`, the Kd is > 4 mM (inactive).
The result for `O=C(O)c1ncoc1-c1ccccc1` reads > 4 mM (inactive).
With `NC(=O)C1CCCN1S(=O)(=O)c1ccc(F)cc1` (configuration not stated) the figure was > 4 mM (inactive); with `CC(C)n1c(-c2ccncc2)n[nH]c1=S`, > 4 mM (inactive).
The result for `O=c1c2ccccc2ncn1C1CCCCC1` reads > 4 mM (inactive); that for `S=C(NCC1CCCO1)NC1CC1` (configuration not stated), > 4 mM (inactive).
Regarding `Cc1c(C(=O)Nc2ccccc2)sc(N)c1C(N)=O`, the Kd is > 4 mM (inactive).
The result for `CC1CCN(C(=O)c2ccc3c(c2)OCCO3)CC1` reads > 4 mM (inactive).
With `Cn1cc(Cl)c(C(=O)NC2CCCC2)n1` the figure was > 4 mM (inactive); with `CN(C)c1ccc2c(=O)[nH][nH]c(=O)c2c1`, > 4 mM (inactive).
